Results reported in patent US20220090124A1, “HUMANIZED VIPR2 COPY NUMBER VARIANT TRANSGENIC MOUSE MODEL FOR ANTIPSYCHOTIC DRUG AND GENE THERAPY DISCOVERY FOR SCHIZOPHRENIA” (Board of Supervisors of Louisiana State University and …, priority 2019, published 2022).

Assays:
[1] = target: T1, hVPAC1 (Homo sapiens, UniProt P32241); details: selectivity; cited from earlier work
T1 sequence (P32241 31-457): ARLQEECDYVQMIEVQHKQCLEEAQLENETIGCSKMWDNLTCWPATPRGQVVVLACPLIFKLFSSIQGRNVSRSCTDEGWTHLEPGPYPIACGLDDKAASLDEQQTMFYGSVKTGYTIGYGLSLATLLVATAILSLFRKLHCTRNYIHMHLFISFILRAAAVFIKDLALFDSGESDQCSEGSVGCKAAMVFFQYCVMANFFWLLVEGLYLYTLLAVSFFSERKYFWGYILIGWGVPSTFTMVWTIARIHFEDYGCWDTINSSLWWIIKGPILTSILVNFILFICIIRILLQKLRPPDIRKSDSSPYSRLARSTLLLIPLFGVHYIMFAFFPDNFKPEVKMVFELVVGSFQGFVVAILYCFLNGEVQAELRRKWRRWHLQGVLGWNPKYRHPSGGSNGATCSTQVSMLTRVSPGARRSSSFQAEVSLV

[2] = target: T2, mouse Vipr2 receptor (Mus musculus, UniProt P41588); details: species specificity; cited from earlier work
T2 sequence (P41588 23-437): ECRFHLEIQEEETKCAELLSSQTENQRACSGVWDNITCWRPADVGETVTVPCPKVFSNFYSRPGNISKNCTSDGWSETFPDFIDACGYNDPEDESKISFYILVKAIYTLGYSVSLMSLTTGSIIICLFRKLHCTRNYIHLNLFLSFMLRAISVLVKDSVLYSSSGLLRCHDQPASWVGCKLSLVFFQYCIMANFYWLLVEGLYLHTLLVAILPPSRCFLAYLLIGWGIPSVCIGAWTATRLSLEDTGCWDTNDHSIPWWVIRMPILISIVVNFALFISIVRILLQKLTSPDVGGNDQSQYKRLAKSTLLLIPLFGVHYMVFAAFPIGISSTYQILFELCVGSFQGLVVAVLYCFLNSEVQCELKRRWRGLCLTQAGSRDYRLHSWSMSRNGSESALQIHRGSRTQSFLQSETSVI

[3] = target: T3, human VPAC2 receptor (Homo sapiens, UniProt P41587); details: high-throughput screen of 1.67 million-compound collection, cell-based cAMP assay; cited from earlier work
T3 sequence (P41587 24-438): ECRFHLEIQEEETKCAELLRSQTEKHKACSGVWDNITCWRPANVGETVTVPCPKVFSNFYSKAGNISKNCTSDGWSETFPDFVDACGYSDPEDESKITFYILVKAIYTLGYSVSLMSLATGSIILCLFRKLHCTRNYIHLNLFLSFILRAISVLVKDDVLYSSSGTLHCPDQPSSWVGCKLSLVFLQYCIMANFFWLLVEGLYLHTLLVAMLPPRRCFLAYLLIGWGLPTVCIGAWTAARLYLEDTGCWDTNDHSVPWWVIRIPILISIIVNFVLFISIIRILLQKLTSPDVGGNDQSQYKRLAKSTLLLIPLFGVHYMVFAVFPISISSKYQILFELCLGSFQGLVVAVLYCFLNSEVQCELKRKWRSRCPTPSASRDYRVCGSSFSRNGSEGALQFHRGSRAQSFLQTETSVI

[4] = target: T4, hPAC1 (Homo sapiens, UniProt P41586); details: selectivity; cited from earlier work
T4 sequence (P41586 21-468): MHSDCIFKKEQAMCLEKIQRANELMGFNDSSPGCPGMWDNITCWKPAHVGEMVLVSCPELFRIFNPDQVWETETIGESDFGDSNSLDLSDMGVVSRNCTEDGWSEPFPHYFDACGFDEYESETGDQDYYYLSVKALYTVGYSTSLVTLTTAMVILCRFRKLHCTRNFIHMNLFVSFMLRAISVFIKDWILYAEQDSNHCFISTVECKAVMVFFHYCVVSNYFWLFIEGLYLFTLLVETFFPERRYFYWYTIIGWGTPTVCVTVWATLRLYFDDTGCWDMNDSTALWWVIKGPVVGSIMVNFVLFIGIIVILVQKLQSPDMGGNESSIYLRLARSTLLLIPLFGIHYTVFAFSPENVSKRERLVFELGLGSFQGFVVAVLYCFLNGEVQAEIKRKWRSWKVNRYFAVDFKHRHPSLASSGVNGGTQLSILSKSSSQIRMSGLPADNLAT

[5] = target: T5, human VIPR2 receptor (Homo sapiens, UniProt P41587); test: receptor block and downstream signaling in cell line expressing the human VIPR2 receptor; assay type: cell-based; details: cell line expressing the human VIPR2 receptor (cell line of VIPR2 CNV)
T5 construct: expressed in transfected cells; host or cells: cell line of VPIR2 CNV (not further described)
T5 sequence (P41587 24-438): T3 sequence (P41587 24-438)
Excerpt: Turning finally to FIG. 57, a small molecule VIPR2 antagonist, (2R,4S)-2-benzyl-4-hydroxy-N-((1S,2R)-2-hydroxy-2,3-dihydro-1H-inden-1-yl)-5-(4-nitrophenylsulfonamido) pentanamide, is shown. Another object of the present invention is to use the VIRP2 BAC Schizophrenia mouse model to identify VIPR2 receptor antagonist as an antipsychotic drug targeting cognitive and social deficits, or as disease-modifying therapy to prevent or slow/stop disease progression. Currently, the majority of VIPR2 agonist or antagonist are peptides. However, two properties of the peptide hormone are problematic from the perspective of therapeutic applications. First, they have a short half-life as a result of its rapid proteolysis. Second, most of these peptides are not specific and activate three broadly distributed receptors, VIPR1, VIPR2, and PAC1. A high-throughput screen on human VPAC2 receptor using a cell-based cAMP assay has identified a single confirmed antagonist hit from a 1.67 million-compound collection. This compound is the first specific small molecule antagonist for human VIPR2 receptor. The full name of the compound is (2R,4S)-2-benzyl-4-hydroxy-N-((1S,2R)-2-hydroxy-2,3-dihydro-1H-inden-1-yl)-5-(4-nitrophenylsulfonamido) pentanamide (FIG. 57). […] The inventors experimented with this hVIPR2 antagonist in the cell line of VPIR2 CNV. […]

## O=C(N[C@H]1c2ccccc2C[C@H]1O)[C@H](Cc1ccccc1)C[C@H](O)CNS(=O)(=O)c1ccc([N+](=O)[O-])cc1 [(2R,4S)-2-benzyl-4-hydroxy-N-((1S,2R)-2-hydroxy-2,3-dihydro-1H-inden-1-yl)-5-(4-nitrophenylsulfonamido) pentanamide]
[1]
  antagonism of hVPAC1: does not antagonize
[2]
  activity on the mouse Vipr2 receptor: completely lacks activity
[3]
  antagonist activity on human VIPR2 receptor: selective human VIPR2 antagonist
[4]
  antagonism of hPAC1: does not antagonize
[5]
  block of VIPR2 receptor and downstream signaling: blocks the VIPR2 receptor and the downstream signaling
